This passage reports Emax results from publication PMC5063977 (The Journal of Biological Chemistry, 2016).

Common to all, as to format: cell-based
In assay [1] the target is T1, RAMP2-CLR (AM1 receptor) (Homo sapiens, UniProt O60895+Q16602).
T1 construct: FLAG; expressed in transfected cells; host or cells: HEK-293 or HEK-293S cells, transient transfection, 1:1 RAMP:CLR
The assay can be described thus: (Ca^2+)i mobilization, HEK-293 cells, RAMP2 + CLR. The conditions noted are these: HEK293, percentage of maximal (Ca^2+)i release with 10 μM ionomycin, mean ± S.E., n = 5. As to the method: (§1) HEK-293 cells were transfected with FuGENE 6 (Roche Applied Science) in accordance with the manufacturer's instructions using a 1:3 (w:v) DNA:FuGENE ratio and a 1:1 ratio of RAMP to CLR. […] The transfected cell lines were grown for 24–48 h prior to assaying.
(§2) Transfected HEK-293 cells were grown to confluence in black, clear bottomed, 96-well plates. […] Cells were then washed followed by the addition of 100 μl of Ca^2+-free Hanks' balanced salt solution. […] Recordings were obtained every 0.5 s for 120 s. Peak magnitude was calculated using five-point smoothing followed by correction against background fluorescence. The peak was used to generate concentration-response curves and normalized relative to 10 μM ionomycin.
(§3) Data analysis for cAMP assays was performed in GraphPad Prism 6.0f (San Diego, CA). […] These values were then used to quantify signaling bias as change in log (τ/Ka) relative to the natural cognate ligand for the respective receptor ([41]). […] Statistical differences were analyzed using one-way ANOVA or Student's t test as appropriate with post hoc Bonferroni's or Dunnett's multiple comparisons, and p < 0.05 was considered significant. […] To quantitate the ligand-dependent response in the yeast system, a strain lacking GPA1 (MMY11), grown in rich medium, was used as a standard ([72]). […]

The target in assay [2] is T1, RAMP2-CLR (AM1 receptor). Put plainly: cAMP accumulation, HEK-293 cells, RAMP2 + CLR. The note with it: mean ± S.E. As to the method:
as §1
The transfected HEK-293 cells were washed in PBS, resuspended in stimulation buffer (PBS containing 0.1% BSA and 0.5 mM IBMX), and seeded at 2000 cells/well in 384-well white Optiplates. Ligands were added in the range of 1 pM to 1 mM, and cAMP accumulation was measured after 30 min of stimulation using a LANCE® cAMP detection kit (PerkinElmer Life Sciences). […] Plates were read using a Mithras LB 940 multimode microplate reader (Berthold Technologies). […] Values were converted to concentration using a cAMP standard curve performed in parallel.
Data analysis for cAMP assays was performed in GraphPad Prism 6.0f (San Diego, CA). Data were fitted to obtain concentration-response curves using either the three-parameter logistic equation (for pEC50 values) or the operational model for partial agonism ([34]) to obtain values of efficacy (log τ) and the equilibrium dissociation constant (log Ka). These values were then used to quantify signaling bias as change in log (τ/Ka) relative to the natural cognate ligand for the respective receptor ([41]). […] Statistical differences were analyzed using one-way ANOVA or Student's t test as appropriate with post hoc Bonferroni's or Dunnett's multiple comparisons, and p < 0.05 was considered significant. […] For RT-PCR, normalization to the internal standard GAPDH was performed to reduce variance and enable a comparison between different cell lines. To quantitate the ligand-dependent response in the yeast system, a strain lacking GPA1 (MMY11), grown in rich medium, was used as a standard ([72]). As GPA1 is not present in this strain, the Gβγ subunits are unregulated and free to signal, allowing us to determine the maximal response of our system. […] For the mammalian cell-based assays, data analysis was carried out as for the yeast curves. […]
Background: Changes in cAMP serve as a functional read-out for many G protein-coupled receptors.

The target in assay [3] is T2, RAMP1-CLR (CGRP receptor) (Homo sapiens, UniProt O60894+Q16602).
T2 construct: FLAG; expressed in transfected cells; host or cells: HEK-293 or HEK-293S cells, transient transfection, 1:1 RAMP:CLR
The assay can be described thus: (Ca^2+)i mobilization, HEK-293S cells, RAMP1 + CLR. The conditions noted are these: HEK293S, percentage of maximal (Ca^2+)i release with 10 μM ionomycin, mean ± S.E., n = 5. As to the method: as §1, §2, §3

T1 sequence (Q16602 23-461): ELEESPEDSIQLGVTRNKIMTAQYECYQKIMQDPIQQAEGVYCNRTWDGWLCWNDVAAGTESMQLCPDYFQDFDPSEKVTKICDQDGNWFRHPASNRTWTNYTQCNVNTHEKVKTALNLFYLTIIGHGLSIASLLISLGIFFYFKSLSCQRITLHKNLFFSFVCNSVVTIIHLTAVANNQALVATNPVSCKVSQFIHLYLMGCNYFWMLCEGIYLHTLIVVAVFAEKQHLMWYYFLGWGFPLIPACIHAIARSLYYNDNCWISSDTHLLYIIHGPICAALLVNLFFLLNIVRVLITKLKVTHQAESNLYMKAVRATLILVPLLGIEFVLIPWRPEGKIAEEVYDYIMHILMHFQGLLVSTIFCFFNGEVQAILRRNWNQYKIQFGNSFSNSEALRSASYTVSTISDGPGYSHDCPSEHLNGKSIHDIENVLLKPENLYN
T1 sequence (O60895 43-175): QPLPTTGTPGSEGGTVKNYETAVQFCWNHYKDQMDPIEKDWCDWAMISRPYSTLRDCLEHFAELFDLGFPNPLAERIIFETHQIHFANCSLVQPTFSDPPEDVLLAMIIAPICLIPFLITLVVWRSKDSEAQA
T2 sequence (Q16602 23-461): as the sequence (Q16602 23-461) above
T2 sequence (O60894 27-148): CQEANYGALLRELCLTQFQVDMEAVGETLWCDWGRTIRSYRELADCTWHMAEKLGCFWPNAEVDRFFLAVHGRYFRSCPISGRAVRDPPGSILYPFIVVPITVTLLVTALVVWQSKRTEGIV

As for `CSCC[C@H](NC(=O)[C@H](CC(C)C)NC(=O)[C@H](CCC(N)=O)NC(=O)[C@H](Cc1c[nH]c2ccccc12)NC(=O)[C@H](CC(C)C)NC(=O)[C@H](CCCNC(=N)N)NC(=O)[C@H](Cc1c[nH]cn1)NC(=O)[C@H](CO)NC(=O)[C@H](CC(C)C)NC(=O)[C@H](CC(N)=O)NC(=O)[C@H](CCC(N)=O)NC(=O)[C@@H](NC(=O)[C@H](CCC(N)=O)NC(=O)[C@@H]1CSSC[C@H](NC(=O)CNC(=O)[C@@H](NC(=O)[C@H](CCCNC(=N)N)NC(=O)[C@H](CC(C)C)NC(=O)[C@H](CC(C)C)NC(=O)[C@H](CCC(N)=O)NC(=O)[C@H](C)NC(=O)[C@H](CCC(N)=O)NC(=O)[C@@H](N)[C@@H](C)O)C(C)C)C(=O)N[C@@H](C(C)C)C(=O)N[C@@H](CC(C)C)C(=O)NCC(=O)N[C@@H]([C@@H](C)O)C(=O)N1)C(C)C)C(=O)NCC(=O)N1CCC[C@H]1C(=O)N[C@@H](C)C(=O)NCC(=O)N[C@@H](CCCNC(=N)N)C(=O)N[C@@H](CCC(N)=O)C(=O)N[C@@H](CC(=O)O)C(=O)N[C@@H](CO)C(=O)N[C@@H](C)C(=O)N1CCC[C@H]1C(=O)N[C@H](C(=O)N[C@@H](CC(=O)O)C(=O)N1CCC[C@H]1C(=O)N[C@@H](CO)C(=O)N[C@@H](CO)C(=O)N1CCC[C@H]1C(=O)N[C@@H](Cc1c[nH]cn1)C(=O)N[C@@H](CO)C(=O)N[C@@H](Cc1ccc(O)cc1)C(N)=O)C(C)C` [AM2, adrenomedullin 2], the Emax (commonly the maximal effect, on the per cent scale that the assay sets) came to 44.4 ± 7.1% in assay [1]; 56 ± 2.2% in assay [2] (HEK293, PTX treated (200 ng/ml, 16 h), percentage of maximal cAMP with 100 μM forskolin in presence of PTX, n = 6 (Table 3)); 34.1 ± 4% in assay [2] (HEK293, percentage of maximal cAMP with 100 μM forskolin, HEK-293, 30 min, n = 8 (Table 2)); 36.6 ± 3.5% in assay [2] (HEK293, untreated, percentage of maximal cAMP with 100 μM forskolin in presence of PTX, n = 9 (Table 3)).

On to `CC[C@H](C)[C@H](NC(=O)[C@H](CCC(N)=O)NC(=O)[C@H](Cc1c[nH]cn1)NC(=O)[C@H](C)NC(=O)[C@H](CC(C)C)NC(=O)[C@H](CCCCN)NC(=O)[C@H](CCC(N)=O)NC(=O)[C@@H](NC(=O)[C@@H](NC(=O)[C@@H]1CSSC[C@H](NC(=O)CNC(=O)[C@H](Cc2ccccc2)NC(=O)[C@H](CO)NC(=O)[C@H](CCCNC(=N)N)NC(=O)[C@H](CC(C)C)NC(=O)CNC(=O)[C@H](CCC(N)=O)NC(=O)[C@H](Cc2ccccc2)NC(=O)[C@H](CC(N)=O)NC(=O)[C@H](CC(N)=O)NC(=O)[C@H](CCSC)NC(=O)[C@H](CO)NC(=O)[C@H](CCC(N)=O)NC(=O)[C@H](CCCNC(=N)N)NC(=O)[C@@H](N)Cc2ccc(O)cc2)C(=O)N[C@@H](CCCNC(=N)N)C(=O)N[C@@H](Cc2ccccc2)C(=O)NCC(=O)N[C@@H]([C@@H](C)O)C(=O)N1)[C@@H](C)O)C(C)C)C(=O)N[C@@H](Cc1ccc(O)cc1)C(=O)N[C@@H](CCC(N)=O)C(=O)N[C@@H](Cc1ccccc1)C(=O)N[C@H](C(=O)N[C@@H](CC(=O)O)C(=O)N[C@@H](CCCCN)C(=O)N[C@@H](CC(=O)O)C(=O)N[C@@H](CCCCN)C(=O)N[C@@H](CC(=O)O)C(=O)N[C@@H](CC(N)=O)C(=O)N[C@H](C(=O)N[C@@H](C)C(=O)N1CCC[C@H]1C(=O)N[C@@H](CCCNC(=N)N)C(=O)N[C@@H](CO)C(=O)N[C@@H](CCCCN)C(=O)N[C@H](C(=O)N[C@@H](CO)C(=O)N1CCC[C@H]1C(=O)N[C@@H](CCC(N)=O)C(=O)NCC(=O)N[C@@H](Cc1ccc(O)cc1)C(N)=O)[C@@H](C)CC)C(C)C)[C@@H](C)O` [AM, adrenomedullin], for which the Emax in assay [3] was determined as 38.2 ± 3.8%.
